Reference: paper PMC10564737, “Structure-based design of a phosphotyrosine-masked covalent ligand targeting the E3 ligase SOCS2” (Nature Communications, 2023)
Values joined by “and” are separate entries in the source; they are usually repeats but may differ in a detail not shown here. Equal entries are not always repeated.

Biological target: T1, SBC2 (Homo sapiens, UniProt O14508)
T1 construct: SOCS2 (amino acids 32–198); His6 (N, cleaved yes); made in house; host or cells: E. coli BL21(DE3)
Assay: Covalent fluorescence polarization (FP) probe displacement assay
Format: binding
Text: With the specific covalent modification of Cys111 established, we decided to fully characterize MN551 as a covalent SOCS2 inhibitor. […] (Fig. 2g, h, Supplementary Fig. 9). Due to the covalent nature of the competing inhibitor, a time-dependent reduction in the fraction of protein-bound probe is observed. […] This value illustrates reasonable specificity for a covalent inhibitor, with nonetheless scope for future optimization. In addition to characterizing the kinetic covalency parameters, we have also assessed the stability of the MN551 by monitoring its reactivity (half-life >70 min) with reduced glutathione (GSH) (Supplementary Fig. 10)[35].
To monitor the SBC2-ligand binding kinetics we designed a fluorescein-labeled small-molecule probe - compound 26. The fluorescence polarization (anisotropy) of a threefold serial dilution of 50 µM SBC2 in 10 nM of the probe in 100 mM HEPES pH 7.5, 50 mM NaCl, 0.5 mM TCEP, 2% DMSO was measured to determine the KL (Supplementary Fig. 9A) (BMG Labtech PHERAstar – firmware v1.33). Protein titration and the curves were fitted using GraphPad Prism 9, using one-site fitting models to determine the probe binding constant, KL. Samples were run in triplicate in 384 well plates, using a total volume per well of 16 μL. The bound fraction of the probe is measure using the equation:1 Fb=Af−A/Af−Ab Where,
A time-dependent reduction in probe anisotropy were measured for a 2-fold serial dilution of […] compound MN551 in 10 nM probe +300 μM SBC2. To determine the initial reversible binding affinity, the initial bound fraction of the probe at time = 0, Fbo (the y-intercept in Fb v/s Time plot, Supplementary Fig. 9B) was plotted against MN551 concentration, and the obtained IC50 is then converted to Ki (Supplementary Fig. 9C)[17]. The slope from Fb versus time graph when divided by Fbo gives rate of covalency, kobs. A plot of kobs v/s MN551 concentration using Michaelis–Menten model of GraphPad Prism 9, provides the parameters kinact (maximum potential rate of inactivation) and KI (concentration of MN551 at which kobs = kinact/2) (Supplementary Fig. 9D, E).
The observed first-order rate constant, kobs is related to KI and kinact by the equation:2 kobs=kinactI/KI+I
At [I]«[KI] the above equation is converted to3 […]
The slope from the plot of kobs against concentration of MN551 gives us the covalent efficiency parameter kinact/KI (Supp Fig. 9F)[30],[33].

[1] = MN551 260.308 nM, Cycle 12 (55 min)
[2] = MN551 260.308 nM, Cycle 19 (90 min), n=1
[3] = MN551 364.432 nM, Cycle 6 (25 min)
[4] = MN551 364.432 nM, Cycle 12 (55 min)
[5] = MN551 364.432 nM, Cycle 19 (90 min), n=1
[6] = MN551 510.204 nM, Cycle 6 (25 min)
[7] = MN551 510.204 nM, Cycle 12 (55 min)
[8] = MN551 510.204 nM, Cycle 19 (90 min), n=1
[9] = MN551 714.286 nM, Cycle 6 (25 min)
[10] = MN551 714.286 nM, Cycle 12 (55 min)
[11] = MN551 714.286 nM, Cycle 19 (90 min), n=1
[12] = MN551 781.25 nM, Cycle 6 (25 min)
[13] = MN551 1000 nM, Cycle 6 (25 min)
[14] = MN551 1000 nM, Cycle 12 (55 min)
[15] = MN551 1000 nM, Cycle 19 (90 min), n=1

T1 sequence (O14508 32-198): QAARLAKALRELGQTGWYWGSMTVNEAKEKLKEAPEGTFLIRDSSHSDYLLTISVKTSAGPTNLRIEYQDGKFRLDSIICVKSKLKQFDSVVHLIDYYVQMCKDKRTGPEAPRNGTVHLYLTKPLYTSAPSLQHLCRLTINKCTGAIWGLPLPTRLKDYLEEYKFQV
T1 sequence (Q15370 1-104 partner limits assumed): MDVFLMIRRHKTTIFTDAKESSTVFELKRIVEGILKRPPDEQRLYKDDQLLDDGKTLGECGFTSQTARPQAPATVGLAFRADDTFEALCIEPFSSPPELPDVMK
T1 sequence (Q15369 17-112 partner limits assumed): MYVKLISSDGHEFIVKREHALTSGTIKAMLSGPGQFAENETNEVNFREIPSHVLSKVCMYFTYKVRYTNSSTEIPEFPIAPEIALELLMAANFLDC

O=C(CCl)Nc1cccc(CNC(=O)[C@H](Cc2ccc(OP(=O)(O)O)cc2)NC(=O)Cc2ccc(F)cc2)c1 [MN551]
Fb (MN551 260.308 nM, Cycle 6 (25 min)): 0.9065 and 0.9342 and 0.9573 | Anisotropy [1]: 262.5 and 259.9 and 257.4 | Fb [1]: 0.8574 and 0.8591 and 0.8311 | Anisotropy data 485,520,520 [2]: 254.9 and 255 and 252.4 | Anisotropy normalised (0 nM MN551 = 1, free probe = 0) [2]: 0.8373 and 0.852 and 0.8299 | Anisotropy normalised (0 nM MN551 = 1, free probe = 0) (MN551 260.308 nM, Cycle 20 (95 min), n=1): 0.8182 and 0.7955 and 0.8068 | Anisotropy based on Raw Data (485) (MN551 364.432 nM, Cycle 7 (30 min)): 266.3 and 261.1 and 263 | Normalised anisotropy (0 nM MN551 = 1, free probe = 0) (MN551 364.432 nM, Cycle 13 (60 min), n=1): 0.8082 and 0.788 and 0.7925 | Normalised anisotropy (0 nM MN551 = 1, free probe = 0) (MN551 364.432 nM, Cycle 14 (65 min), n=1): 0.8132 and 0.8023 and 0.7716 | Normalised anisotropy (0 nM MN551 = 1, free probe = 0) (MN551 364.432 nM, Cycle 15 (70 min), n=1): 0.8109 and 0.8027 and 0.7817 | Fb, fraction bound (MN551 364.432 nM, Cycle 3 (10 min)): 0.8953 and 0.9033 and 0.8725 | Anisotropy data 485,520,520 [3]: 261.2 and 252.2 and 253.6 | Fb [3]: 0.8702 and 0.8783 and 0.9647 | Anisotropy [4]: 258 and 255.4 and 255.3 | Fb [4]: 0.8155 and 0.8159 and 0.8109 | Anisotropy data 485,520,520 [5]: 251.5 and 248.8 and 245.6 | Anisotropy normalised (0 nM MN551 = 1, free probe = 0) [5]: 0.8046 and 0.79 and 0.7638 | Anisotropy normalised (0 nM MN551 = 1, free probe = 0) (MN551 364.432 nM, Cycle 20 (95 min), n=1): 0.7592 and 0.7548 and 0.7585 | Anisotropy based on Raw Data (485) (MN551 390.625 nM, Cycle 7 (30 min)): 269.8 and 271.4 and 267.4 | Fb, fraction bound (MN551 390.625 nM, Cycle 2 (5 min)): 0.9917 and 0.9704 and 0.9496 | Fb, fraction bound (MN551 390.625 nM, Cycle 3 (10 min)): 0.9862 and 0.9672 and 0.9437 | Anisotropy (MN551 390.625 nM, Cycle 12 (55 min)): 270.6 and 267.1 and 265.1 | Anisotropy based on Raw Data (485) (MN551 510.204 nM, Cycle 7 (30 min)): 261.7 and 259.3 and 261 | Anisotropy based on Raw Data (485) (MN551 510.204 nM, Cycle 8 (35 min)): 261.5 and 258.9 and 258.8 | Normalised anisotropy (0 nM MN551 = 1, free probe = 0) (MN551 510.204 nM, Cycle 13 (60 min), n=1): 0.7484 and 0.7226 and 0.7442 | Normalised anisotropy (0 nM MN551 = 1, free probe = 0) (MN551 510.204 nM, Cycle 14 (65 min), n=1): 0.7755 and 0.7213 and 0.7092 | Normalised anisotropy (0 nM MN551 = 1, free probe = 0) (MN551 510.204 nM, Cycle 15 (70 min), n=1): 0.7476 and 0.7154 and 0.7087 | Fb, fraction bound (MN551 510.204 nM, Cycle 3 (10 min)): 0.8721 and 0.8651 and 0.8107 | Anisotropy data 485,520,520 [6]: 257.3 and 244.3 and 249.4 | Fb [6]: 0.8302 and 0.8538 and 0.9038 | Anisotropy [7]: 252.2 and 248.3 and 248.9 | Fb [7]: 0.7614 and 0.7478 and 0.7495 | Anisotropy data 485,520,520 [8]: 243.6 and 240.1 and 238.9 | Anisotropy normalised (0 nM MN551 = 1, free probe = 0) [8]: 0.7286 and 0.703 and 0.6987 | Anisotropy normalised (0 nM MN551 = 1, free probe = 0) (MN551 510.204 nM, Cycle 20 (95 min), n=1): 0.6867 and 0.6831 and 0.6676 | Anisotropy based on Raw Data (485) (MN551 714.286 nM, Cycle 7 (30 min)): 257.5 and 256.2 and 255.9 | Anisotropy based on Raw Data (485) (MN551 714.286 nM, Cycle 8 (35 min)): 256 and 254.7 and 255.3 | Normalised anisotropy (0 nM MN551 = 1, free probe = 0) (MN551 714.286 nM, Cycle 14 (65 min), n=1): 0.7189 and 0.6657 and 0.6727 | Normalised anisotropy (0 nM MN551 = 1, free probe = 0) (MN551 714.286 nM, Cycle 15 (70 min), n=1): 0.6832 and 0.6708 and 0.6558 | Fb, fraction bound (MN551 714.286 nM, Cycle 3 (10 min)): 0.8072 and 0.8019 and 0.7869 | Anisotropy data 485,520,520 [9]: 249.8 and 245.7 and 246.8 | Fb [9]: 0.8082 and 0.8312 and 0.8793 | Anisotropy [10]: 245.4 and 244 and 241.6 | Fb [10]: 0.698 and 0.7066 and 0.6795 | Fb (MN551 714.286 nM, Cycle 13 (60 min)): 0.6773 and 0.6691 and 0.6737 | Anisotropy data 485,520,520 [11]: 235.3 and 235.8 and 229.2 | Anisotropy normalised (0 nM MN551 = 1, free probe = 0) [11]: 0.6487 and 0.66 and 0.6045 | Anisotropy normalised (0 nM MN551 = 1, free probe = 0) (MN551 714.286 nM, Cycle 20 (95 min), n=1): 0.6238 and 0.6124 and 0.601 | Anisotropy based on Raw Data (485) (MN551 781.25 nM, Cycle 7 (30 min)): 264.8 and 264.3 and 257.5 | Fb, fraction bound (MN551 781.25 nM, Cycle 2 (5 min)): 0.8861 and 0.914 and 0.9072 | Fb, fraction bound (MN551 781.25 nM, Cycle 3 (10 min)): 0.8842 and 0.8716 and 0.861 | Anisotropy data 485,520,520 [12]: 261.7 and 267.5 and 267.1 | Fb [12]: 0.8257 and 0.8639 | Anisotropy (MN551 781.25 nM, Cycle 12 (55 min)): 254.6 and 253.4 and 251.5 | Anisotropy based on Raw Data (485) (MN551 1000 nM, Cycle 7 (30 min)): 254.7 and 249.8 and 251.7 | Anisotropy based on Raw Data (485) (MN551 1000 nM, Cycle 8 (35 min)): 251.7 and 250.9 and 246 | Normalised anisotropy (0 nM MN551 = 1, free probe = 0) (MN551 1000 nM, Cycle 14 (65 min), n=1): 0.5934 and 0.6045 and 0.5749 | Normalised anisotropy (0 nM MN551 = 1, free probe = 0) (MN551 1000 nM, Cycle 15 (70 min), n=1): 0.5741 and 0.5664 and 0.5538 | Fb, fraction bound (MN551 1000 nM, Cycle 3 (10 min)): 0.7627 and 0.7851 and 0.7345 | Anisotropy data 485,520,520 [13]: 247.9 and 241.8 and 240.6 | Fb [13]: 0.7763 and 0.812 | Anisotropy [14]: 234.4 and 236.4 and 233.2 | Fb [14]: 0.5955 and 0.6337 and 0.5988 | Fb (MN551 1000 nM, Cycle 13 (60 min)): 0.5631 and 0.5917 and 0.6014 | Anisotropy data 485,520,520 [15]: 220.4 and 223.8 and 219.7 | Anisotropy normalised (0 nM MN551 = 1, free probe = 0) [15]: 0.5053 and 0.54 and 0.5121 | Anisotropy normalised (0 nM MN551 = 1, free probe = 0) (MN551 1000 nM, Cycle 20 (95 min), n=1): 0.4971 and 0.4767 and 0.4821
